A value given as a limit tells only on which side of the number the result lay.

For the experiment, the target named is T1, human α-thrombin (Homo sapiens, UniProt P00734).
T1 construct: Assays of human α-thrombin
As to the kind of experiment: In vitro assay for determining proteinase inhibition (human α-thrombin). The experiment is classed as biochemical. Particulars: 25° C., 0.05M TRIS buffer pH 7.4, 0.15M NaCl, 0.1% PEG; sar-PR-pna or Z-GPR-afc substrate. The method, then:
In vitro assay for determining proteinase inhibition
Assays of human α-thrombin and human trypsin were performed at 25° C. in 0.05M TRIS buffer pH 7.4, 0.15M NaCl, 0.1% PEG. Trypsin assays also contained 1 mM CaCl2.
In assays wherein rates of hydrolysis of a p-nitroanilide (pna) substrate were determined, a Thermomax 96-well plate reader was used to measure (at 405 nm) the time dependent appearance of p-nitroaniline. sar-PR-pna (sarcosine-Pro-Arg-p-nitroanilide) was used to assay human α-thrombin (Km =125 μM) and human trypsin (Km =59 μM). p-Nitroanilide substrate concentration was determined from measurements of absorbance at 342 nm using an extinction coefficient of 8270 cm^-1 M^-1.
In certain studies with potent inhibitors (Ki <10 nM) where the degree of inhibition of thrombin was high, a more sensitive activity assay was employed. In this assay the rate of thrombin catalyzed hydrolysis of the fluorogenic substrate Z-GPR-afc (Cbz-Gly-Pro-Arg-7-amino-4-trifluoromethylcoumarin) (Km =27 μM) was determined from the increase in fluorescence at 500 nm (excitation at 400 nm) associated with production of 7-amino-4-trifluoromethyl coumarin. Concentrations of stock solutions of Z-GPR-afc were determined from measurements of absorbance at 380 nm of the 7-amino-4-trifluoromethyl coumarin produced upon complete hydrolysis of an aliquot of the stock solution by thrombin.
Activity assays were performed by diluting a stock solution of substrate at least tenfold to a final concentration 0.5 Km into a solution containing enzyme or enzyme equilibrated with inhibitor. Times required to achieve equilibration between enzyme and inhibitor were determined in control experiments. Initial velocities of product formation in the absence (Vo) or presence of inhibitor (Vi) were measured. Assuming competitive inhibition, and that unity is negligible compared Km /[S], […] (where [S], [I], and e respectively represent the total concentrations, of substrate, inhibitor and enzyme), the equilibrium constant (Ki) for dissociation of the inhibitor from the enzyme can be obtained from the dependence of Vo /Vi on [I] shown in equation 1.
For `Cc1nc(N)ccc1CNC(=O)Cn1c(C)cc2c(c1=O)NC(=O)[C@H](CC1CC1)N2`, the Ki (as a rule, a measure of affinity in units of concentration, obtained from inhibition or displacement) is below 1 nM.

`Cc1cc2c(c(=O)n1CC(=O)NCc1cc(Cl)ccc1OCC(=O)NC1CC1)NC(=O)[C@H](Cc1ccccc1)N2` had a Ki below 1 nM. Consider `Cc1nc(N)ccc1CNC(=O)Cn1c(C)cc2c(c1=O)NC(=O)[C@H](Cc1ccccc1)N2`, for which the Ki was below 1 nM.

`Cc1nc(N)ccc1CNC(=O)Cn1c(C)cc2c(c1=O)NC(=O)[C@@H]1CCCCN21`: the Ki is above 1 nM. To `Cc1nc(N)ccc1CNC(=O)Cn1c(C)cc2c(c1=O)NC(=O)CN2Cc1ccccc1` belongs above 1 nM. The figure for `Cc1nc(N)ccc1CNC(=O)Cn1c(C)cc2c(c1=O)NC(=O)[C@H](CC1CC1)N2C` is below 1 nM.

As for `Cc1cc2c(c(=O)n1CC(=O)NCc1ccc(N)nc1)NC(=O)[C@H](CC1CC1)N2C`, the Ki was below 1 nM. The figure for `Cc1cc2c(c(=O)n1CC(=O)NCc1ccccc1OCC(=O)NC1CC1)NC(=O)[C@H](CC1CC1)N2C` is below 1 nM.

These data come from patent publication US5869487A, “Pyrido[3,4-B]pyrazines for use as thrombin inhibitors” (Merck & Co., Inc., priority 1997, dated 1999).
